Test results taken from patent US8969577B2, “Curable composition comprising a thermolatent base” (BASF SE, priority 2008, dated 2015).

Assay: Curing of powder coating formulation, conversion of epoxy groups by ATR-IR
Conditions: for Conversion at 5′ 130° C. / Conversion 5′ 130° C.: 5 min 130° C.; for Conversion at 5′ 150° C. / Conversion 5′ 150° C.: 5 min 150° C.; for Conversion 5′ 100° C. / Conversion 5′ 130° C. / Conversion 5′ 150° C. / Conversion 5′ 180° C.: Table 4, amount 1 wt. %; for Conversion 5′ 100° C. / Conversion at 5′ 100° C.: 5 min 100° C.; for Conversion 5′ 180° C.: 5 min 180° C.; for Conversion at 15′ 120° C.: 15 min 120° C.
Procedure: A powder coating formulation consisting of an acidic functional polyester and an epoxy functional polymer that cures without a catalyst at 200° C. for 20 minutes is used. The solid coating formulation is dissolved at 50% solids in methyl-iso-butyl ketone for ease of application. The curing catalyst is added in varying amounts from 0.5 up to 1.5% by weight, based on solids. The thermolatent compounds are compared with imidazole or compound 1 as a reference base. The formulation is applied at wet thickness 250 μm using a wire bar. The solvent is evaporated at room temperature during 30 minutes, and the coating formulation is cured for given times and at the specified temperature (cf. Tables 2 to 4). The curing progress is evaluated using attenuated total reflection infrared (IR) spectroscopy. The fading of the epoxy-attributable peak at 899-921 cm^−1 in comparison to the stable reference peak at 814-841 cm^−1 is used for the calculation of the conversion of epoxy groups.

| SMILES | Conversion at 5′ 130° C. (amount 1.0 wt. %) | Conversion at 5′ 150° C. (amount 1.0 wt. %) | Conversion at 5′ 130° C. (amount 1.5 wt. %) | Conversion at 5′ 150° C. (amount 1.5 wt. %) | Conversion at 5′ 130° C. (amount 0.5 wt. %) | Conversion at 5′ 150° C. (amount 0.5 wt. %) | Conversion 5′ 100° C. | Conversion 5′ 130° C. | Conversion 5′ 150° C. | Conversion 5′ 180° C. | Conversion at 5′ 100° C. (amount 0.5 wt. %) | Conversion at 15′ 120° C. (amount 0.5 wt. %) |
| --- | --- | --- | --- | --- | --- | --- | --- | --- | --- | --- | --- | --- |
| CCNC(=O)OCCNc1ccccn1 [Compound 7] | 14% | 95% | 29% | 93% | – | – | – | – | – | – | – | – |
| OCCNc1ccccn1 [Compound 2, 2-(pyridine-2-ylamino)ethanol] | – | – | – | – | 26% | 97% | – | – | – | – | – | – |
| CN(C)CCCNc1ccc2ccccc2n1 [Compound 16] | – | – | – | – | – | – | 0% | 0% | 20% | 100% | – | – |
| c1c[nH]cn1 [imidazole, reference compound] | – | – | – | – | 35% | 100% | 53% | 74% | 100% | 100% | 26% | 100% |
| C1=CC2=NCCN2C=C1 [Compound 1, reference compound] | – | – | – | – | – | – | – | – | – | – | 13% | 98% |
| CC(C)(C)OC(=O)OCCNc1ccccn1 [Compound 3] | 22% | 94% | 23% | 100% | – | – | – | – | – | – | – | – |
